Laboratory results published in patent US5767278A, “Telomerase inhibitors” (Geron Corporation, priority 1995, dated 1998).

Experiments:
[1] = molecular target: T1, telomerase (Homo sapiens, UniProt O14746); assay: Inhibition of telomerase activity (IC50); type: biochemical
T1 construct: placing cells, tissues, or preferably a cellular extract or other preparation containing telomerase in contact with; endogenous in cells
Source text: One method used to identify compounds of the invention that inhibit telomerase activity involves placing cells, tissues, or preferably a cellular extract or other preparation containing telomerase in contact with several known concentrations of a test compound in a buffer compatible with telomerase activity. […] Other methods for determining the inhibitory concentration of a compound of the invention against telomerase can be employed as will be apparent to those of skill in the art based on the disclosure herein.
With the above-described methods, IC50 values for several of the compounds of the present invention were determined. The values reported in Table 3 below are only approximate values; more exact IC50 values can be obtained by repetitive testing.

[2] = system: telomerase-positive cells; assay: Telomere length in telomerase-positive cells treated with Compound XIV (one uncontrolled experiment); type: cell-based; details: dosing period of about 48 hours
Method: Colonies of the tumor cell lines, such as the ovarian tumor cell lines OVCAR-5 and SK-OV-3, and normal human cells used as a control (e.g., normal human BJ cells) are prepared using standard methods and materials. In one test, the colonies are prepared by seeding 15-centimeter dishes with about 10^6 cells in each dish. The dishes are incubated to allow the cell colonies to grow to about 80% confluence, at which time each of the colonies are divided into two groups. One group is exposed to a subacute dose of a compound of the invention at a predetermined concentration (e.g., between about 5 μM and about 20 μM) for a period of about 4-8 hours after plating following the split; the other group is exposed to a control (e.g., DMSO).
Each group is then allowed to continue to divide, and the groups are split evenly again (near confluence). The same number of cells are seeded for continued growth. The compound or control is added every fourth day to the samples at the same concentration delivered initially. Remaining cells are analyzed for telomere length. As the untested cell cultures near confluence, the samples are split again as just described. […]
Telomere length is determined by digesting the DNA of the cells using restriction enzymes specific for sequences other than the repetitive T2 AG3 sequence of human telomeres. […]

[3] = Half-life of Compound XIV; type: in vitro ADME; details: additional data suggest; on the order of about
[4] = Table 3, only approximate values
[5] = approximate IC50 values, summary of the table

T1 sequence (O14746 whole entry): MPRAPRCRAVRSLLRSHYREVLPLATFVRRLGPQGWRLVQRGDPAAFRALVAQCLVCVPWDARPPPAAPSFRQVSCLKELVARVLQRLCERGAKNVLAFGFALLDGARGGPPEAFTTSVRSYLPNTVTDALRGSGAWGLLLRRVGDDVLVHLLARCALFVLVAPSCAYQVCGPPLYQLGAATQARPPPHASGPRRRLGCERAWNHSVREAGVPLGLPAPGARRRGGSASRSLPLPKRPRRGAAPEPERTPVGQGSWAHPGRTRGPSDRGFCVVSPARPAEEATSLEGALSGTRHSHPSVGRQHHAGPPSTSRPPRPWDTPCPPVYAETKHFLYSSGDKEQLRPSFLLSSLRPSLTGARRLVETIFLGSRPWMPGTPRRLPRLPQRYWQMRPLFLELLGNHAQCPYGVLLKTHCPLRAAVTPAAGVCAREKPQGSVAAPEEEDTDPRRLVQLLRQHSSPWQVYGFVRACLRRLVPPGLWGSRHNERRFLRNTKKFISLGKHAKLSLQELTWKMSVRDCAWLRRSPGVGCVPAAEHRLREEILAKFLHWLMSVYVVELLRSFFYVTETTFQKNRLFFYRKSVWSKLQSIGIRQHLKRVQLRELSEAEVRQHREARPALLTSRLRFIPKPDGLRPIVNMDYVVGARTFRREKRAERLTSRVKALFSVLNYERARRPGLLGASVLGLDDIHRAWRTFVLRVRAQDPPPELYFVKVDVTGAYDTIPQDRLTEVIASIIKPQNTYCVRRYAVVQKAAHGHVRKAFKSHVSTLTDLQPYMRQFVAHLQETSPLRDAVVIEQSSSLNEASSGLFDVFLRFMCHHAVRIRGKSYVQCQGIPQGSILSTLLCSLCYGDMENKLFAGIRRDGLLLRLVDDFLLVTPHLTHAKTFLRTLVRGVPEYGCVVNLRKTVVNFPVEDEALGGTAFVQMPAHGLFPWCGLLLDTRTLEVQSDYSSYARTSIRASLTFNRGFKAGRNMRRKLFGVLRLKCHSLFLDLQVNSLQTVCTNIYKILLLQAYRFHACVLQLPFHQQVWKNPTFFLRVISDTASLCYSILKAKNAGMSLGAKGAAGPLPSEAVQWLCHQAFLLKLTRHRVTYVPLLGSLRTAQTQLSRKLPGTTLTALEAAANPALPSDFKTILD
T1 sequence (O60832 whole entry partner): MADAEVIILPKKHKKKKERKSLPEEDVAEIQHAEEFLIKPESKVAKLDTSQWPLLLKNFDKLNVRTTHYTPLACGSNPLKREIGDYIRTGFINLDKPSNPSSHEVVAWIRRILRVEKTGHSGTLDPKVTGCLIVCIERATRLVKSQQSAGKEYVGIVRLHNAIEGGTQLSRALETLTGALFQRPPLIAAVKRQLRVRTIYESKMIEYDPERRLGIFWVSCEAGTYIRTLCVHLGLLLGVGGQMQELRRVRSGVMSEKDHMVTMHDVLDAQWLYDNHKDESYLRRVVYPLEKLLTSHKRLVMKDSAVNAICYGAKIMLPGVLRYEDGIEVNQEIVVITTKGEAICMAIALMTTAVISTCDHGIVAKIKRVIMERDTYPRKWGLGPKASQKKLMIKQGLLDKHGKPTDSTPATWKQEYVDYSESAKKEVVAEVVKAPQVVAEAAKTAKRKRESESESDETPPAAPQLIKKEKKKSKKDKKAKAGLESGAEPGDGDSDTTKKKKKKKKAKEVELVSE
T1 sequence (Q9NPE3 whole entry partner): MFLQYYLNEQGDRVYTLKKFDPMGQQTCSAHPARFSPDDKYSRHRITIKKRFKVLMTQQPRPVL
T1 sequence (Q9NX24 whole entry partner): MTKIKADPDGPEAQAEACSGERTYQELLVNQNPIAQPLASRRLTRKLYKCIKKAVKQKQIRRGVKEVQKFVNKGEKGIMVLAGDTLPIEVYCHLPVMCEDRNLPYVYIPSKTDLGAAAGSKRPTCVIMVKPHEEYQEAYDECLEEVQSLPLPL
T1 sequence (Q9NY12 whole entry partner): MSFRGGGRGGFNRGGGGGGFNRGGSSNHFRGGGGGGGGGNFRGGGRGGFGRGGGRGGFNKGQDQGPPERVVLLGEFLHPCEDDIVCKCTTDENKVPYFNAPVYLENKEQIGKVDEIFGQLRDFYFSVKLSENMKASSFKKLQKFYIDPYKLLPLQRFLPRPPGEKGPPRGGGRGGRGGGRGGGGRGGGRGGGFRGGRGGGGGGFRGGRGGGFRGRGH

Compound | IC50 [1, 4] [µM] | further results
COc1ccc(N=Cc2ccc(C#N)c(SCc3ccc(Cl)s3)n2)nc1 [Compound LIII] | 5 | IC50 [1, 5]: < 5 µM
N#Cc1ccc(C=Nc2ccc(Br)cn2)nc1SCc1ccc(Cl)s1 [Compound LII] | < 3.2 | IC50 [1, 5]: < 5 µM
Cc1ccc(NN=Cc2ccc(C#N)c(SCc3ccc(Cl)c(Cl)c3)n2)cc1 [Compound LIV] | 17 | –
N#Cc1ccc(C=NNC(=S)Nc2ccc(F)cc2)nc1SCc1ccc(Cl)c(Cl)c1 [Compound LVII] | 18 | –
Cc1ccc(NC(=S)NN=Cc2ccc(C#N)c(SCc3ccc(Cl)c(Cl)c3)n2)cc1 [Compound LVI] | 18 | –
N#Cc1ccc(C=NNc2ccc(Cl)cc2)nc1SCc1ccc(Cl)c(Cl)c1 [Compound LV] | 19.2 | –
Cc1cccnc1N=Cc1ccc(C#N)c(SCc2ccc(Cl)c(Cl)c2)n1 [Compound XIV] | < 3.2 | IC50 [1, 5]: < 5 µM; shorting of telomere length [2]: No significant shorting of telomere length was observed; half-life [3]: ~12 h
Cc1cccnc1N=Cc1ccc(C#N)c(SCc2ccccc2C(F)(F)F)n1 [Compound XIX] | 3 | –
Cc1cccnc1N=Cc1ccc(C#N)c(SCc2ccc3c(c2)C(C)(C)CCC3(C)C)n1 [Compound XLIII] | < 3.2 | IC50 [1, 5]: < 5 µM
Cc1cccnc1N=Cc1ccc(C#N)c(SCc2csc3ccc(Cl)cc23)n1 [Compound XLVII] | < 3.2 | IC50 [1, 5]: < 5 µM
Cc1cccnc1N=Cc1ccc(C#N)c(SCc2ccccc2-c2ccccc2)n1 [Compound XVIII] | 2 | –
Cc1cccnc1N=Cc1ccc(C#N)c(SCc2cc(C(F)(F)F)cc(C(F)(F)F)c2)n1 [Compound XVII] | 2 | –
Cc1cccnc1N=Cc1ccc(C#N)c(SCc2c(Cl)cccc2Cl)n1 [Compound XVI] | 1 | –
Cc1ccnc(N=Cc2ccc(C#N)c(SCc3ccc(Cl)c(Cl)c3)n2)c1 [Compound XV] | 8 | –
Cc1cccnc1N=Cc1ccc(C#N)c(SCc2ccccc2Br)n1 [Compound XXIII] | 2 | –
Cc1cccnc1N=Cc1ccc(C#N)c(SCc2ccc(-c3ccccc3)cc2)n1 [Compound XXII] | 2 | –
Cc1ccccc1CSc1nc(C=Nc2ncccc2C)ccc1C#N [Compound XXIV] | 3 | –
Cc1cc(C)cc(CSc2nc(C=Nc3ncccc3C)ccc2C#N)c1 [Compound XXIX] | 2 | –
Cc1cccnc1N=Cc1ccc(C#N)c(SCc2ccc(C(C)C)cc2)n1 [Compound XXI] | 2 | –
Cc1cccnc1N=Cc1ccc(C#N)c(SCc2ccc(C(F)(F)F)cc2C(F)(F)F)n1 [Compound XXVII] | 5 | –

Compound | IC50 [1, 4] [µM] | further results
Cc1ccc(C)c(CSc2nc(C=Nc3ncccc3C)ccc2C#N)c1 [Compound XXVI] | 0.9 | –
Cc1cccnc1N=Cc1ccc(C#N)c(SCc2cc(Cl)cc3c2OCOC3)n1 [Compound XXV] | 4 | –
Cc1cccnc1N=Cc1ccc(C#N)c(SCc2cc(Cl)cc(Cl)c2)n1 [Compound XXXII] | < 3.2 | –
Cc1ccc(CSc2nc(C=Nc3ncccc3C)ccc2C#N)c(C)c1 [Compound XXXI] | < 3.2 | –
Cc1cccnc1N=Cc1ccc(C#N)c(SCc2cc(Cl)cc(Cl)c2)n1 [Compound XXXVII] | – | IC50 [1, 5]: < 5 µM
Cc1cccnc1N=Cc1ccc(C#N)c(SCc2ccc(C(C)(C)C)cc2)n1 [Compound XXX] | 2 | –
Cc1cccnc1N=Cc1ccc(C#N)c(SCc2ccc(C=Cc3ccccc3)cc2)n1 [Compound XX] | 8 | –
CCN1C(=O)c2ccc(N=Cc3ccc(C#N)c(SCc4ccc(Cl)c(Cl)c4)n3)cc2C1=O [Compound X] | 9 | –
N#Cc1ccc(C=Nc2ccc(Cl)cc2)nc1SCc1ccc(Cl)c(Cl)c1 [III] | 6.5 | –
COc1ccc(N=Cc2ccc(C#N)c(SCc3ccc(Cl)c(Cl)c3)n2)cc1 [IV] | 4.9 | IC50 [1, 5]: < 5 µM
N#Cc1ccc(C=Nc2ccc3c(c2)C(=O)N(Cc2ccccc2)C3=O)nc1SCc1ccc(Cl)c(Cl)c1 [IX] | 8 | –
Cc1cccnc1N=Cc1ccc(C#N)c(SCC#CCSc2nc(C=Nc3ncccc3C)ccc2C#N)n1 [LXI] | < 3.2 | IC50 [1, 5]: < 5 µM
N#Cc1ccc(C=Nc2ccc3c(c2)OCCO3)nc1SCc1ccc(Cl)c(Cl)c1 [VIII] | 10 | –
N#Cc1ccc(C=Nc2ccc(Br)c(C(F)(F)F)c2)nc1SCc1ccc(Cl)c(Cl)c1 [VII] | 12 | –
N#Cc1ccc(C=Nc2ccc(F)c(F)c2)nc1SCc1ccc(Cl)c(Cl)c1 [VI] | 10 | –
N#Cc1ccc(N=Cc2ccc(C#N)c(SCc3ccc(Cl)c(Cl)c3)n2)cc1Cl [V] | 10 | –
Cc1ccc(N=Cc2ccc(C#N)c(SCc3ccc(Cl)c(Cl)c3)n2)nc1 [XIII] | 7 | –
Cc1nc(N=Cc2ccc(C#N)c(SCc3ccc(Cl)c(Cl)c3)n2)ccc1Br [XII] | 7 | –
Cc1cccnc1N=Cc1ccc(C#N)c(SCc2cccc(Cl)c2F)n1 [XXVIII] | 2 | –
